The structures appear in SMILES notation. Where only a bound is given, the exact number is not on record here.

In assay [1] the target is T1, Induced myeloid leukemia cell differentiation protein Mcl-1 (Homo sapiens, UniProt Q07820). Description: Inhibition of N-terminal biotin-labeled BIM BH3 peptide (141 to 166 residues) binding to His-tagged Mcl-1 (171 to 327 residues) (unknown origin) expressed in Escherichia coli BL21 (DE3) cells incubated for >=30 mins by […]. A general note: Fluorescence polarisation rises when a labelled molecule tumbles more slowly, as on binding a larger partner.

A further assay deals with LP-1. Description: Cytotoxicity against human LP-1 cells after 24 hrs by MTT assay. It is filed as functional, cell-based. The note with it: LP-1, 24 h. On the technique in general: Tetrazolium dyes change colour on reduction, which living cells bring about.
The nature of assay [2]: Cytotoxicity against human MOLP8 cells after 24 hrs by MTT assay. It is filed as functional, cell-based. The note with it: MOLP-8, 24 h.
The test system of a further assay is MM1.S. Description: Cytotoxicity against human MM1.S cells after 24 hrs by MTT assay. It is filed as functional, cell-based.
The test system of the next assay is KMS-12-PE. Description: Cytotoxicity against human KMS-12-PE cells after 24 hrs by MTT assay. It is filed as functional, cell-based.
Assay [3] deals with T1, Induced myeloid leukemia cell differentiation protein Mcl-1. Description: Inhibition of biotinylated Bim peptide (81 to 106 residues) binding to His-tagged Mcl-1 (171 to 327 residues) (unknown origin) expressed in Escherichia coli BL21 (DE3) cells preincubated for 1 hr followed by biotinylated Bim peptide addition measured after 2 hrs by ELISA. Background: ELISA stands for enzyme-linked immunosorbent assay.

The target is the same in assay [4]. Description: Displacement of Flu-BID/FAM-BID from His-tagged Mcl-1 (171 to 327 residues) (unknown origin) expressed in Escherichia coli BL21 (DE3) cells incubated for 3 hrs by fluorescence polarization assay.
The next assay concerns K562. Description: Cytotoxicity against human K562 cells after 24 hrs by MTT assay. It is filed as functional, cell-based. The note with it: K562, 24 h.
The subject of a further assay is L-363. Description: Cytotoxicity against human L-363 cells after 24 hrs by MTT assay. It is filed as functional, cell-based. The note with it: L-363, 24 h.
The next assay concerns NCI-H929. Description: Cytotoxicity against human NCI-H929 cells after 24 hrs by MTT assay. The note with it: NCI-H929, 24 h. It is filed as functional, cell-based.

T1 sequence (Q07820 whole entry, the tested form may be a part): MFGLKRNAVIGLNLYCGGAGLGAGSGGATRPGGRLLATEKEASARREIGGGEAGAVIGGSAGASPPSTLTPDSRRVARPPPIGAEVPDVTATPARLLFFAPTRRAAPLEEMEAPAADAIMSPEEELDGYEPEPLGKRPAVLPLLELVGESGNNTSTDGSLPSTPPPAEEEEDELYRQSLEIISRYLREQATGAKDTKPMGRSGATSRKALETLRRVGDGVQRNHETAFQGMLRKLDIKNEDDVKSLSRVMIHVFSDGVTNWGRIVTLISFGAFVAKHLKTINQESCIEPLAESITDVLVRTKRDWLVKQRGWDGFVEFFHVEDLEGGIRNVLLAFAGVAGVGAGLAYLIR

As to `Cc1nn(C)c(COc2ccc(N3CCN(S(=O)(=O)N(C)C)CC3)cc2)c1-c1cccc2c(CCCOc3cccc4ccccc34)c(C(=O)O)n(CCN3CCOCC3)c12`, the IC50 was 0.0088 µM in assay [1]; 10.6 µM with LP-1; 9.7 µM in assay [2]; above 40 µM in the assay with MM1.S; above 40 µM with KMS-12-PE; 0.0125 µM in [3]. The figures for the 50% inhibitory concentration (IC50) with K562, in the assay on L-363 and in the assay with NCI-H929 were 13.9 µM, 11.8 µM and 8.6 µM, respectively. For the same compound, the Ki in assay [4] worked out at 0.0047 µM.
In the case of `c1ccc(-c2nccc3c2[nH]c2ccccc23)nc1`, the IC50 in assay [1] is above 10 µM; in the assay on LP-1 it was above 40 µM; in assay [2] it was above 40 µM; with MM1.S it was above 40 µM; in the assay with KMS-12-PE, above 40 µM; in assay [3], above 10 µM. Besides, the IC50 in the assay on K562, with L-363 and in the assay on NCI-H929 was above 40 µM in each case. The compound also yielded a Ki in assay [4] above 10 µM.
For the compound `CCn1c2ccccc2c2ccnc(-c3ccccn3)c21`, the IC50 in assay [1] is above 10 µM; with LP-1 it was above 40 µM; in [2], above 40 µM; in the assay with MM1.S, above 40 µM; in the assay with KMS-12-PE, above 40 µM; in assay [3] it was above 10 µM. The IC50 in the assay on K562, in the assay with L-363 and with NCI-H929 was above 40 µM throughout. For the same compound, in assay [4], the Ki is above 10 µM.
`c1ccc(Cn2c3ccccc3c3ccnc(-c4ccccn4)c32)cc1`: the IC50 in assay [1] is above 10 µM; with LP-1, above 40 µM; in [2] it was above 40 µM; with MM1.S, above 40 µM; in the assay with KMS-12-PE, above 40 µM; in [3], above 10 µM. Besides, the IC50 in the assay on K562 is 32.8 µM; in the assay with L-363, above 40 µM; in the assay on NCI-H929, 37.4 µM. The compound also returned a Ki in [4] of 6.13 µM.
As for `CCOCCn1c2ccccc2c2ccnc(-c3ccccn3)c21`, the half-maximal inhibitory concentration (IC50) in assay [1] was above 10 µM; in the assay with LP-1 it was above 40 µM; in [2], above 40 µM; in the assay on MM1.S it was above 40 µM; in the assay on KMS-12-PE it was above 40 µM; in assay [3] it was above 10 µM. For the same compound, the concentration for half-maximal inhibition (IC50) in the assay with K562, in the assay with L-363 and with NCI-H929 was above 40 µM in each case. Further, the Ki in assay [4] is above 10 µM.
For the compound `Cc1ccc(Cn2c3ccccc3c3ccnc(-c4ccccn4)c32)cc1`, the half-inhibitory concentration (IC50) was 9.08 µM in assay [1]; 25.8 µM with LP-1; 27.5 µM in [2]; above 40 µM in the assay on MM1.S; above 40 µM in the assay on KMS-12-PE; above 10 µM in [3]. Further, the IC50 stood at 22.6 µM in the assay with K562, 33.5 µM with L-363 and 17.9 µM with NCI-H929. The compound also returned a Ki in [4] of 4.93 µM.
`Fc1ccc(Cn2c3ccccc3c3ccnc(-c4ccccn4)c32)cc1`: the IC50 is above 10 µM in [1]; 33.6 µM in the assay on LP-1; 34.7 µM in assay [2]; above 40 µM in the assay with MM1.S; above 40 µM in the assay with KMS-12-PE; above 10 µM in [3]. The figures for the IC50 in the assay on K562, with L-363 and in the assay on NCI-H929 were 28.9 µM, above 40 µM and 25.4 µM, respectively. This compound returned a Ki in assay [4] of 5.52 µM.
In the case of `c1ccc(OCCn2c3ccccc3c3ccnc(-c4ccccn4)c32)cc1`, the IC50 is above 10 µM in assay [1]; above 40 µM in the assay with LP-1; above 40 µM in assay [2]; above 40 µM in the assay with MM1.S; above 40 µM in the assay on KMS-12-PE; above 10 µM in assay [3]. Also, the IC50 with K562, in the assay with L-363 and with NCI-H929 was above 40 µM throughout. Also, in assay [4], the Ki is above 10 µM.
Regarding `c1ccc(-c2nccc3c4ccccc4n(CC4CC4)c23)nc1`, the IC50 in assay [1] is above 10 µM; in the assay with LP-1 it was above 40 µM; in assay [2], above 40 µM; with MM1.S, above 40 µM; with KMS-12-PE it was above 40 µM; in assay [3], above 10 µM. Besides, the IC50 in the assay on K562, in the assay with L-363 and in the assay with NCI-H929 was above 40 µM in each case. The same compound had a Ki in assay [4] above 10 µM.
With `c1ccc(-c2nccc3c4ccccc4n(Cc4ccc5ccccc5c4)c23)nc1`, the IC50 in [1] was 8.52 µM; with LP-1, above 40 µM; in assay [2] it was above 40 µM; in the assay with MM1.S, above 40 µM; in the assay with KMS-12-PE it was above 40 µM; in assay [3] it was above 10 µM. Besides, the IC50 with K562, in the assay with L-363 and in the assay with NCI-H929 was above 40 µM each time. The affinity in assay [4] corresponds to a Ki of 6.61 µM.
As for `c1ccc(COCCn2c3ccccc3c3ccnc(-c4ccccn4)c32)cc1`, the IC50 in assay [1] is above 10 µM; with LP-1, above 40 µM; in assay [2], above 40 µM; in the assay with MM1.S, above 40 µM; in the assay on KMS-12-PE, above 40 µM; in assay [3], above 10 µM. In addition, the concentration for half-maximal inhibition (IC50) with K562, in the assay on L-363 and in the assay with NCI-H929 was above 40 µM throughout. This compound also registered a Ki in assay [4] of 7.88 µM.
As for `c1ccc(CCn2c3ccccc3c3ccnc(-c4ccccn4)c32)cc1`, the IC50 in assay [1] is 8.81 µM; in the assay on LP-1 it was 18.8 µM; in assay [2], 21.4 µM; with MM1.S it was above 40 µM; in the assay with KMS-12-PE it was above 40 µM; in assay [3], above 10 µM. For the same compound, the values for the IC50 in the assay with K562, with L-363 and with NCI-H929 were 17.9 µM, 24.9 µM and 14.3 µM, respectively. For the same compound, the Ki in [4] was 3.13 µM.

Usually IC50 stands for the concentration that inhibits the measured activity by half. Usually Ki stands for the dissociation constant of the complex between target and ligand, obtained from inhibition or displacement. Low values mean tighter binding, high ones weaker binding.

For the origin of these results see ChEMBL document CHEMBL4725364, “Discovery of a Copper-Based Mcl-1 Inhibitor as an Effective Antitumor Agent” (J Med Chem, 2020).
